From PubChem BioAssay (NCI)
Where “and” joins values, the source holds several entries; their conditions need not be identical. Equal entries are not always repeated.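 Interpolation was linear, between the two tested concentrations surrounding the appropriate level; five concentrations were tested over 48 hours in 96-well plates. Abbreviation: GI50, concentration required for 50% inhibition of growth. TGI denotes the concentration required for complete inhibition of growth.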

Tests used:
Experiment in all cases: NCI anticancer screen, dose series, 48 h
CAKI-1 renal = tested on: CAKI-1 renal
HOP-62 NSCLC = tested on: HOP-62 NSCLC
HT29 colon = tested on: HT29 colon
K-562 leukemia = tested on: K-562 leukemia
NCI-H23 lung = tested on: NCI-H23 lung
RXF 393 renal = tested on: RXF 393 renal
SF-268 CNS = tested on: SF-268 CNS
SK-MEL-5 melanoma = tested on: SK-MEL-5 melanoma
SN12C renal = tested on: SN12C renal
SW-620 colon = tested on: SW-620 colon

SMILES | TGI (CAKI-1 renal) | TGI (HOP-62 NSCLC) | TGI (HT29 colon) | TGI (K-562 leukemia) | TGI (NCI-H23 lung) | TGI (RXF 393 renal) | TGI (SF-268 CNS) | TGI (SK-MEL-5 melanoma) | TGI (SN12C renal) | TGI (SW-620 colon) | GI50 (CAKI-1 renal) | GI50 (HT29 colon) | GI50 (K-562 leukemia) | GI50 (NCI-H23 lung) | GI50 (RXF 393 renal) | GI50 (SF-268 CNS) | GI50 (SK-MEL-5 melanoma) | GI50 (SW-620 colon) | GI50 (HOP-62 NSCLC) | GI50 (SN12C renal)
C/C(=N\NS(=O)(=O)c1ccc(C)cc1)P(=O)(O)O | > 100 µM | > 100 µM | > 100 µM | > 100 µM | > 100 µM | > 100 µM | > 100 µM | > 100 µM | > 100 µM | > 100 µM | – | – | – | – | – | – | – | – | – | –
CC(C)=CCC/C(C)=C/CC/C(C)=C/CSc1ccccc1C(=O)O | 71.6 µM and 38.3 µM | 35.2 µM and 30.6 µM | > 78.5 µM and 38.1 µM | > 100 µM | 61.4 µM and 36.3 µM | 52.3 µM and 56 µM | 35.7 µM and 32.6 µM | 41.5 µM and 29.5 µM | 56.4 µM and 51.9 µM | 42.5 µM and > 100 µM | 28.1 µM | 33.5 µM | 26.2 µM | 23.6 µM | 22.2 µM | 18.5 µM | 19.6 µM | 20.1 µM | – | –
O=C1C=CC(=Nc2cc(Br)c(O)c(Br)c2)C=C1 | 68 µM | 76.1 µM | 35 µM | > 100 µM | 38.3 µM | 63.8 µM | > 100 µM | 32.1 µM | 84.1 µM | > 100 µM | 26.4 µM | 18 µM | 5.83 µM | 16 µM | 12.5 µM | 24.6 µM | 15.6 µM | 15.8 µM | 28.4 µM | 25.6 µM
O=C(Cc1ccc(F)c(F)c1)Nc1cc(C2(C(F)(F)F)CC2)nn1Cc1ccccc1 | 11.5 µM | > 15 µM | > 15 µM | > 15 µM | 10.9 µM | 12.2 µM | > 15 µM | 5.4 µM | > 15 µM | > 15 µM | 3.24 µM | 3.74 µM | 5.01 µM | 3.61 µM | 2.65 µM | 4.27 µM | 2.77 µM | 3.91 µM | 4.55 µM | 4.64 µM
COc1c2ccoc2c(OC)c2oc(=O)ccc12 | > 100 µM | > 100 µM | > 100 µM | > 100 µM | > 100 µM | > 100 µM | > 100 µM | > 100 µM | > 100 µM | > 100 µM | – | – | – | – | – | – | – | – | – | –
O=[P+](O)c1ccsc1 | > 100 µM | > 100 µM | > 100 µM | > 100 µM | > 100 µM | > 100 µM | > 100 µM | > 100 µM | > 100 µM | > 100 µM | – | – | – | – | – | – | – | – | – | –
Cc1nc2ccccc2c(/C=C/c2ccc(Cl)cc2)c1C(=O)/C=C/c1ccc(C(F)(F)F)cc1 | 1.52 µM | 2.31 µM | 0.54 µM | > 100 µM | 2.78 µM | 0.988 µM | 2.78 µM | 2.63 µM | 2.62 µM | 0.761 µM | 0.386 µM | 0.165 µM | 0.31 µM | 0.827 µM | 0.322 µM | 0.872 µM | 1.34 µM | 0.251 µM | 0.877 µM | 1.15 µM
CC(C)O/N=C/c1cc(NC(=S)OC(C)C)ccc1Cl | > 84.7 µM | > 70.6 µM | 66.3 µM | > 53.4 µM | > 100 µM | 52.9 µM | > 69.8 µM | > 73.4 µM | > 57.9 µM | > 72.6 µM | – | – | – | – | – | – | – | – | – | –
COC(=O)C(C(=O)C(=O)Nc1ccc([N+](=O)[O-])cc1[N+](=O)[O-])c1nc2ccc(Cl)cc2[nH]c1=O (stereo not drawn) | > 100 µM | > 100 µM | > 100 µM | > 100 µM | > 100 µM | > 100 µM | > 100 µM | > 100 µM | > 100 µM | > 100 µM | – | – | – | – | – | – | – | – | – | –
COc1cccc(NC(=O)c2sc3nc(C)c(C(O)c4ccccc4)cc3c2N)c1 (stereo not drawn) | 18 µM | 26.2 µM | 14 µM | > 100 µM | 15.8 µM | 2.75 µM | 30.9 µM | 1.32 µM | 17.6 µM | 27.1 µM | 0.347 µM | 0.3 µM | 0.117 µM | 0.401 µM | 0.226 µM | 1.05 µM | 0.287 µM | 0.228 µM | 0.481 µM | 0.421 µM
NCC1OC(n2cnc3c(N)ncnc32)CC1O (stereo not drawn) | > 100 µM | > 100 µM | > 100 µM | > 100 µM | > 100 µM | > 100 µM | > 100 µM | > 100 µM | > 100 µM | > 100 µM | – | – | – | – | – | – | – | – | – | –
C#CCSc1cc(Cl)c(C)cc1S(=O)(=O)Nc1nc2ccccc2o1 | 67.9 µM | 65.6 µM | > 100 µM | > 100 µM | 87.8 µM | > 100 µM | > 100 µM | 40.2 µM | > 100 µM | > 100 µM | 26.3 µM | 42.8 µM | 69.8 µM | 35.9 µM | 32.9 µM | 59.8 µM | 20.5 µM | 46.7 µM | 29 µM | 43.5 µM
CNC(=O)c1ccccc1Nc1nc(Nc2cc(OC)c(OC)c(OC)c2)ncc1Br | 0.275 µM | 2.31 µM | 12.7 µM | > 38.9 µM | 1.12 µM | 0.0712 µM | 2.18 µM | 1.18 µM | 3.3 µM | 5.76 µM | 0.0155 µM | 0.0161 µM | 0.0874 µM | 0.035 µM | 0.0154 µM | 0.0384 µM | 0.054 µM | 0.0241 µM | 0.0349 µM | 0.0366 µM
NCCCCCCCn1c2c(c3ccccc3c1=O)C(=O)c1ccccc1-2 | 5.25 µM | 2.73 µM | 2.6 µM | 2.62 µM | 8.36 µM | 3.39 µM | 6.34 µM | 2.77 µM | 5.84 µM | 2.42 µM | 1.96 µM | 1.29 µM | 1.31 µM | 2.98 µM | 1.57 µM | 2.1 µM | 1.45 µM | 1.14 µM | 1.36 µM | 1.94 µM
O=c1c(Br)cc2nc3ccccc3sc-2c1Br | > 100 µM | > 100 µM | > 100 µM | 55.5 µM | > 100 µM | > 100 µM | > 100 µM | > 100 µM | > 100 µM | > 100 µM | – | – | – | – | – | – | – | – | – | –
